The record followed here is patent publication US12624018B1, “Inhibitors of RIPK2 and medical uses thereof” (Odyssey Therapeutics, Inc., priority 2022, dated 2026).

Where only a bound is given, the exact number is not on record here.

This experiment deals with T1, RIPK2 enzyme (Homo sapiens, UniProt O43353).
T1 construct: purchased Carna 09-128
As to the kind of experiment: RIPK2 inhibition (ADP-Glo Kinase Assay). The class given is biochemical. Conditions: RIPK2 5 nM, ATP 150 μM, MBP substrate, read-out: RIPK2 IC50. A digest of the protocol: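 Human RIPK2 (5 nM) preincubated with compound 30 min at room temperature in 50 mM HEPES pH 7.5, 10 mM MgCl2, 2 mM DTT, 1 mM EGTA, 0.01% Brij-35, 0.05% BSA; native swine MBP as substrate. ADP formed quantified by ADP-Glo luminescence; percent inhibition relative to DMSO and no-enzyme controls.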
For orientation: ADP-Glo first removes unused ATP, then detects ADP through luciferase.

T1 sequence (O43353 1-299 limits assumed): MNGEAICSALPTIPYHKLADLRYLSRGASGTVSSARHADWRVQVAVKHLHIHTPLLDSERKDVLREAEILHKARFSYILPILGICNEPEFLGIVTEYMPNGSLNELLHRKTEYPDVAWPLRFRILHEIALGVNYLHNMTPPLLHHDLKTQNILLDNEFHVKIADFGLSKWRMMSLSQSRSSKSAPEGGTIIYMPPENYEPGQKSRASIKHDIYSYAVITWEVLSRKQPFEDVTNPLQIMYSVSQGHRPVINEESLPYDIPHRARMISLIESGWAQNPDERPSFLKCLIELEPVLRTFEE

As to `Cc1cc(CC(=O)Nc2cc(C(C)C)n(C)n2)ccc1Oc1ccnc2ccc(S(C)(=O)=O)cc12` [Compound 233, N-(5-isopropyl-1-methyl-1H-pyrazol-3-yl)-2-(3-methyl-4-((6-(methylsulfonyl)quinolin-4-yl)oxy)phenyl)acetamide], the IC50 (commonly the concentration that gives 50% inhibition) was less than 2.5 nM.

As for `Cc1cc(CC(=O)Nc2cc(C3CC3)[nH]n2)ccc1Oc1ccnc2ccc(S(C)(=O)=O)cc12` [Compound 234, N-(5-cyclopropyl-1H-pyrazol-3-yl)-2-(3-methyl-4-((6-(methylsulfonyl)quinolin-4-yl)oxy)phenyl)acetamide], the IC50 is less than 2.5 nM. In the case of `Cc1cc(CC(=O)Nc2cc(C3CC3)n(C)n2)ccc1Oc1ccnc2ccc(S(C)(=O)=O)cc12` [Compound 235, N-(5-cyclopropyl-1-methyl-1H-pyrazol-3-yl)-2-(3-methyl-4-((6-(methylsulfonyl)quinolin-4-yl)oxy)phenyl)acetamide] it was less than 2.5 nM. As for `Cc1cc(CC(=O)Nc2cc(C(C)(C)O)[nH]n2)ccc1Oc1ccnc2ccc(S(C)(=O)=O)cc12` [Compound 236, N-(5-(2-hydroxypropan-2-yl)-1H-pyrazol-3-yl)-2-(3-methyl-4-((6-(methylsulfonyl)quinolin-4-yl)oxy)phenyl)acetamide], the IC50 is less than 2.5 nM. In the case of `Cc1cc(CC(=O)Nc2cnn(C(C)(C)C)c2)ccc1Oc1ccnc2ccc(S(=O)(=O)CC3COC3)cc12` [Compound 240, N-(1-(tert-butyl)-1H-pyrazol-4-yl)-2-(3-methyl-4-((6-((oxetan-3-ylmethyl)sulfonyl)quinolin-4-yl)oxy)phenyl)acetamide] it was less than 2.5 nM; in that of `Cc1cc(CC(=O)Nc2cnn(C(C)(C)C)c2)ccc1Oc1ccnc2ccc(S(=O)(=O)C3CCC(=O)NC3)cc12` (centres unmarked) [Compound 243, N-(1-(tert-butyl)-1H-pyrazol-4-yl)-2-(3-methyl-4-((6-((6-oxopiperidin-3-yl)sulfonyl)quinolin-4-yl)oxy)phenyl)acetamide], less than 2.5 nM; in that of `Cc1cc(CC(=O)Nc2cnn(C(C)(C)C)c2)ccc1Oc1ccnc2ccc(-c3ncc(CO)cn3)cc12` [Compound 244, N-(1-(tert-butyl)-1H-pyrazol-4-yl)-2-(4-((6-(5-(hydroxymethyl)pyrimidin-2-yl)quinolin-4-yl)oxy)-3-methylphenyl)acetamide], less than 2.5 nM. Turning to `Cc1cc(CC(=O)Nc2cnn(C(C)(C)C)c2)ccc1Oc1ccnc2ccc(-c3ccc[nH]c3=O)cc12` [Compound 245, N-(1-(tert-butyl)-1H-pyrazol-4-yl)-2-(3-methyl-4-((6-(2-oxo-1,2-dihydropyridin-3-yl)quinolin-4-yl)oxy)phenyl)acetamide], the IC50 is less than 2.5 nM. Turning to `Cc1cc(CC(=O)Nc2cnn(C(C)(C)C)c2)ccc1Oc1ccnc2ccc(-c3cccn(C)c3=O)cc12` [Compound 246, N-(1-(tert-butyl)-1H-pyrazol-4-yl)-2-(3-methyl-4-((6-(1-methyl-2-oxo-1,2-dihydropyridin-3-yl)quinolin-4-yl)oxy)phenyl)acetamide], the IC50 was 3.8 nM.

For `Cc1cc(CC(=O)Nc2cnn(C(C)(C)C)c2)ccc1Oc1ccnc2ccc(-c3ncc[nH]c3=O)cc12` [Compound 247, N-(1-(tert-butyl)-1H-pyrazol-4-yl)-2-(3-methyl-4-((6-(3-oxo-3,4-dihydropyrazin-2-yl)quinolin-4-yl)oxy)phenyl)acetamide], the IC50 is less than 2.5 nM. In the case of `Cc1c(Oc2ccnc3ccc(S(=O)(=O)C4COC4)cc23)ccc(CC(=O)Nc2cnn(C(C)(C)C)c2)c1F` [Compound 248, N-(1-(tert-butyl)-1H-pyrazol-4-yl)-2-(2-fluoro-3-methyl-4-((6-(oxetan-3-ylsulfonyl)quinolin-4-yl)oxy)phenyl)acetamide] it was less than 2.5 nM; in that of `Cc1c(Oc2ccnc3ccc(S(=O)(=O)C4CCOCC4)cc23)ccc(CC(=O)Nc2cnn(C(C)(C)C)c2)c1F` [Compound 249, N-(1-(tert-butyl)-1H-pyrazol-4-yl)-2-(2-fluoro-3-methyl-4-((6-((tetrahydro-2H-pyran-4-yl)sulfonyl)quinolin-4-yl)oxy)phenyl)acetamide], less than 2.5 nM; in that of `Cc1cc(CC(=O)Nc2cnn(C(C)(C)C)c2)ccc1Oc1ccnc2ccc(CN3CCNCC3)cc12` [Compound 252, N-(1-(tert-butyl)-1H-pyrazol-4-yl)-2-(3-methyl-4-((6-(piperazin-1-ylmethyl)quinolin-4-yl)oxy)phenyl)acetamide], less than 2.5 nM. Regarding `Cc1cc(CC(=O)Nc2cnn(C(C)(C)C)c2)ccc1Oc1ccnc2ccc(S(N)(=O)=O)cc12` [Compound 254, N-(1-(tert-butyl)-1H-pyrazol-4-yl)-2-(3-methyl-4-((6-sulfamoylquinolin-4-yl)oxy)phenyl)acetamide], the IC50 was less than 2.5 nM. In the case of `CNS(=O)(=O)c1ccc2nccc(Oc3ccc(CC(=O)Nc4cnn(C(C)(C)C)c4)cc3C)c2c1` [Compound 255, N-(1-(tert-butyl)-1H-pyrazol-4-yl)-2-(3-methyl-4-((6-(N-methylsulfamoyl)quinolin-4-yl)oxy)phenyl)acetamide] it was less than 2.5 nM.

As for `Cc1cc(CC(=O)Nc2cnn(C(C)(C)C)c2)ccc1Oc1ccnc2ccc(S(=O)(=O)N(C)C)cc12` [Compound 256, N-(1-(tert-butyl)-1H-pyrazol-4-yl)-2-(4-((6-(N,N-dimethylsulfamoyl)quinolin-4-yl)oxy)-3-methylphenyl)acetamide], the IC50 is less than 2.5 nM.

As to `Cc1cc(CC(=O)Nc2cnn(C(C)(C)C)c2)ccc1Oc1ccnc2ccc(S(=O)(=O)N3CCCC3)cc12` [Compound 257, N-(1-(tert-butyl)-1H-pyrazol-4-yl)-2-(3-methyl-4-((6-(pyrrolidin-1-ylsulfonyl)quinolin-4-yl)oxy)phenyl)acetamide], the half-inhibitory concentration (IC50) was less than 2.5 nM. For `Cc1cc(CC(=O)Nc2cnn(C(C)(C)C)c2)ccc1Oc1ccnc2ccc(S(=O)(=O)N3CCC3)cc12` [Compound 258, 2-(4-((6-(azetidin-1-ylsulfonyl)quinolin-4-yl)oxy)-3-methylphenyl)-N-(1-(tert-butyl)-1H-pyrazol-4-yl)acetamide], the concentration for half-maximal inhibition (IC50) is less than 2.5 nM. As for `Cc1cc(CC(=O)Nc2cnn(C(C)(C)C)c2)ccc1Oc1ccnc2ccc(S(=O)(=O)N3CC(F)C3)cc12` [Compound 259, N-(1-(tert-butyl)-1H-pyrazol-4-yl)-2-(4-((6-((3-fluoroazetidin-1-yl)sulfonyl)quinolin-4-yl)oxy)-3-methylphenyl)acetamide], the IC50 was less than 2.5 nM. As for `Cc1cc(CC(=O)Nc2cnn(C(C)(C)C)c2)ccc1Oc1ccnc2ccc(S(=O)(=O)N3CC(C#N)C3)cc12` [Compound 260, N-(1-(tert-butyl)-1H-pyrazol-4-yl)-2-(4-((6-((3-cyanoazetidin-1-yl)sulfonyl)quinolin-4-yl)oxy)-3-methylphenyl)acetamide], the IC50 amounted to 2.5 nM. In the case of `Cc1cc(CC(=O)Nc2cnn(C(C)(C)C)c2)ccc1Oc1ccnc2ccc(S(=O)(=O)N3CCOCC3)cc12` [Compound 261, N-(1-(tert-butyl)-1H-pyrazol-4-yl)-2-(3-methyl-4-((6-(morpholinosulfonyl)quinolin-4-yl)oxy)phenyl)acetamide] it was less than 2.5 nM; in that of `Cc1cc(CC(=O)Nc2cnn(C(C)(C)C)c2)ccc1Oc1ccnc2ccc(S(=O)(=O)N(C)CCO)cc12` [Compound 262, N-(1-(tert-butyl)-1H-pyrazol-4-yl)-2-(4-((6-(N-(2-hydroxyethyl)-N-methylsulfamoyl)quinolin-4-yl)oxy)-3-methylphenyl)acetamide], less than 2.5 nM. In the case of `COCCN(C)S(=O)(=O)c1ccc2nccc(Oc3ccc(CC(=O)Nc4cnn(C(C)(C)C)c4)cc3C)c2c1` [Compound 263, N-(1-(tert-butyl)-1H-pyrazol-4-yl)-2-(4-((6-(N-(2-methoxyethyl)-N-methylsulfamoyl)quinolin-4-yl)oxy)-3-methylphenyl)acetamide] it was less than 2.5 nM; in that of `Cc1cc(CC(=O)Nc2cnn(C(C)(C)C)c2)ccc1Oc1ccnc2ccc(NS(C)(=O)=O)cc12` [Compound 264, N-(1-(tert-butyl)-1H-pyrazol-4-yl)-2-(3-methyl-4-((6-(methylsulfonamido)quinolin-4-yl)oxy)phenyl) acetamide], less than 2.5 nM. Regarding `Cc1cc(CC(=O)Nc2cnn(C(C)(C)C)c2)ccc1Oc1ccnc2ccc(N(C)S(C)(=O)=O)cc12` [Compound 265, N-(1-(tert-butyl)-1H-pyrazol-4-yl)-2-(3-methyl-4-((6-(N-methylmethyl-sulfonamido)quinolin-4-yl)oxy)phenyl) acetamide], the IC50 is less than 2.5 nM. In the case of `Cc1cc(CC(=O)Nc2cnn(C(C)(C)C)c2)ccc1Oc1ccnc2ccc(N3CCCS3(=O)=O)cc12` [Compound 266, N-(1-(tert-butyl)-1H-pyrazol-4-yl)-2-(4-((6-(1,1-dioxidoisothiazolidin-2-yl)quinolin-4-yl)oxy)-3-methylphenyl) acetamide] it was less than 2.5 nM; in that of `Cc1c(Oc2ccnc3ccc(S(N)(=O)=O)cc23)ccc(CC(=O)Nc2cnn(C(C)(C)C)c2)c1F` [Compound 267, N-(1-(tert-butyl)-1H-pyrazol-4-yl)-2-(2-fluoro-3-methyl-4-((6-sulfamoylquinolin-4-yl)oxy)phenyl)acetamide], less than 2.5 nM. Take `CNS(=O)(=O)c1ccc2nccc(Oc3ccc(CC(=O)Nc4cnn(C(C)(C)C)c4)c(F)c3C)c2c1` [Compound 268, N-(1-(tert-butyl)-1H-pyrazol-4-yl)-2-(2-fluoro-3-methyl-4-((6-(N-methylsulfamoyl)quinolin-4-yl)oxy)phenyl)acetamide]: the concentration for half-maximal inhibition (IC50) was less than 2.5 nM. Regarding `Cc1c(Oc2ccnc3ccc(S(=O)(=O)N(C)C)cc23)ccc(CC(=O)Nc2cnn(C(C)(C)C)c2)c1F` [Compound 269, N-(1-(tert-butyl)-1H-pyrazol-4-yl)-2-(4-((6-(N,N-dimethylsulfamoyl)quinolin-4-yl)oxy)-2-fluoro-3-methylphenyl)acetamide], the half-inhibitory concentration (IC50) is less than 2.5 nM.
